Molecular target: T1, m-cGAS (Mus musculus, UniProt Q8C6L5)
T1 construct: recombinant full-length mouse cGAS in reaction buffer; His6-SUMO (N, cleaved yes); made in house; host or cells: E. coli BL21(DE3) RIL
Test: Kinetics of m-cGAS in the presence of RU.365 (RF-MS)
Format: biochemical
Method: Kinetics parameters of cGAMP formation were determined in the reaction mixtures carried out in 20 μl volumes in 384 small volume deep well polypropylene plates. The final concentration of m-cGAS enzyme and dsDNA were 60 nM and 300 nM, respectively. To determine if RU.365 was competitive against ATP and/or GTP, different concentrations of RU.365 ranging from 0.8 µM to 6.3 µM were tested, keeping one substrate fixed at 300 µM while varying the other one. Apparent K m ^app and apparent V max ^app values were also calculated in the presence and absence of the small molecule. RU.365 was diluted by half in DMSO for a total of four dilutions where the highest final concentration in the assay was 6.3 μM. Ten microliters of reaction buffer composed of 20 mM Tris-HCl pH 7.4, 150 mM NaCl, 5 mM MgCl2, and 0.01% Tween-20 were dispensed per well using a Thermo Multidrop Combi dispenser (Thermo Scientific). The liquid was collected at the well bottom by centrifugation for 30 s at 180×g. In all, 0.1 μl of RU.365 serially diluted in DMSO were dispensed with a Janus 384 MDT NanoHead (PerkinElmer).
Each reaction containing a variable substrate concentration was performed in a different plate. A separate column containing different amounts of cGAMP was also included in each plate in order to construct the calibration curve and calculate the µmoles of product formed. Twenty different master mix solutions were prepared in reaction buffer supplemented with 2 mM DTT and 1.2 µM dsDNA. Of these, Ten master mix solutions were prepared with different concentrations of GTP ranging from 2.36 µM to 1.2 mM while keeping the concentration of ATP fixed at 1.2 mM and vice versa for the other 10 master mix solutions. Five microliters of these solutions with variable substrate concentration were added for each reaction. Finally, the reaction was started by adding 5 μl of 0.24 μM recombinant full-length mouse cGAS in reaction buffer supplemented with 2 mM DTT to each well of the plate followed by centrifugation for 30 s at 180×g and incubation for 120 min at room temperature. The reaction was stopped by addition of 60 μl of 0.5% (v/v) formic acid per well. The plates were centrifuged for 30 s at 180×g and sealed with a Velocity11 PlateLoc thermal plate sealer. To calculate IC50 log (inhibitor) vs. response, a variable slope non-linear fit from GraphPad Prism (7.01) was used, using three replicate experiments; error bars represent SD. The kinetics parameters were obtained fitting the curves to an allosteric sigmoidal nonlinear fit using the same software.

[1] = varying ATP, GTP fixed, RU.365 0.8 µM
[2] = varying ATP, GTP fixed, RU.365 1.6 µM
[3] = varying ATP, GTP fixed, RU.365 3.2 µM
[4] = varying ATP, GTP fixed, RU.365 6.3 µM
[5] = varying GTP, ATP fixed, RU.365 0.8 µM
[6] = varying GTP, ATP fixed, RU.365 1.6 µM
[7] = varying GTP, ATP fixed, RU.365 3.2 µM
[8] = varying GTP, ATP fixed, RU.365 6.3 µM

T1 sequence (Q8C6L5 whole entry): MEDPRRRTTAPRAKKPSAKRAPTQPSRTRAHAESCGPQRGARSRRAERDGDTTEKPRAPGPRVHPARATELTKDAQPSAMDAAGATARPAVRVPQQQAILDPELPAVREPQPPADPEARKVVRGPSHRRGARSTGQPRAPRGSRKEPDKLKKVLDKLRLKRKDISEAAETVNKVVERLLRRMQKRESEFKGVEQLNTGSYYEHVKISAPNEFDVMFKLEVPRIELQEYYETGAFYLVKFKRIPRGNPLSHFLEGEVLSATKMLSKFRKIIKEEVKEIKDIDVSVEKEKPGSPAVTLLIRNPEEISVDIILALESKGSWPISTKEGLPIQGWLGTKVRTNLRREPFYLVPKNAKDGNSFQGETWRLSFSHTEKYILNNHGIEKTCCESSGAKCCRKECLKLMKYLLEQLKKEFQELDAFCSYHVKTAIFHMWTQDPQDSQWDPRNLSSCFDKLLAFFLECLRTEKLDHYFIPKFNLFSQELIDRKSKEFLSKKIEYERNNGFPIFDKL

mechanism of inhibition against ATP or GTP: non-competitive inhibitor
Kmapp [1]: 109.1 µM
kcat [1]: 0.283 s⁻¹
Kmapp [2]: 115.5 µM
kcat [2]: 0.233 s⁻¹
Kmapp [3]: 113.4 µM
kcat [3]: 0.152 s⁻¹
Kmapp [4]: 107.3 µM
kcat [4]: 0.0717 s⁻¹
Kmapp [5]: 77.8 µM
kcat [5]: 0.283 s⁻¹
Kmapp [6]: 89.7 µM
kcat [6]: 0.233 s⁻¹
Kmapp [7]: 79.7 µM
kcat [7]: 0.152 s⁻¹
Kmapp [8]: 89.4 µM
kcat [8]: 0.0717 s⁻¹
SMILES: Cc1nn(-c2nc3ccccc3[nH]2)c(O)c1C1OC(=O)c2ccccc21 (centres unmarked) [RU166365]
